Experimental data reported in US10947188B2, “Small molecule ferroptosis inducers” (THE TRUSTEES OF COLUMBIA UNIVERSITY IN THE CITY OF NEW YORK, priority 2016, dated 2021).

What was measured:
HT-1080 = experiment: Modulatory profiling: Alamar Blue viability, lethal compound cotreated with death modulator (EC50, AUC); type: cell-based; parameters: AUC, modulator HT.3MA / AUC, modulator HT.ALLN / AUC HT.ATA / AUC HT.ActD / AUC HT.BHA / AUC HT.BHT / AUC HT.BocD / AUC HT.CHX / AUC HT.Co2+ / AUC HT.DPQ / AUC HT.EGTA / AUC HT.Lmim / AUC HT.NAD+ / AUC HT.Nec-1 / AUC HT.SP600125 / AUC HT.TLCK / AUC HT.U0126: unit not given beside the values; conditions: for AUC HT.ATA: HT-1080, modulator ATA; for AUC HT.ActD: HT-1080, modulator ActD; for AUC HT.BHA: HT-1080, modulator BHA; for AUC HT.BHT: HT-1080, modulator BHT; for AUC HT.BocD: HT-1080, modulator BocD; for AUC HT.CHX: HT-1080, modulator CHX; for AUC HT.Co2+: HT-1080, modulator Co2+; for AUC HT.CspA: HT-1080, modulator CspA; for AUC HT.DPQ: HT-1080, modulator DPQ; for AUC HT.EGTA: HT-1080, modulator EGTA; for AUC HT.Gd3+: HT-1080, modulator Gd3+; for AUC HT.LNAME: HT-1080, modulator LNAME; for AUC HT.Lmim: HT-1080, modulator Lmim; for AUC HT.NAD+: HT-1080, modulator NAD+; for AUC HT.NMMA: HT-1080, modulator NMMA; for AUC HT.Nec-1: HT-1080, modulator Nec-1; for AUC HT.Pepstatin: HT-1080, modulator Pepstatin; for AUC HT.SP600125: HT-1080, modulator SP600125; for AUC HT.TLCK: HT-1080, modulator TLCK; for AUC HT.U0126: HT-1080, modulator U0126; for HT.atoc (AUC) / HT.bCarotene (AUC) / HT.deferox (AUC) / HT.digoxin (AUC) / HT.trolox (AUC) / HT.zVAD (AUC): HT-1080; for HT.atoc (AUC): modulator atoc; for HT.bCarotene (AUC): modulator bCarotene; for HT.deferox (AUC): modulator deferox; for HT.digoxin (AUC): modulator digoxin; for HT.trolox (AUC): modulator trolox; for HT.zVAD (AUC): modulator zVAD; for AUC, modulator HT.3MA / AUC, modulator HT.ALLN: HT-1080 cells, modulatory profile value (AUC); for AUC, modulator HT.3MA: lethal compound cotreated with modulator 3MA; for AUC, modulator HT.ALLN: lethal compound cotreated with modulator ALLN; as to AUC HT.BHA: reference of the scale not given here; as to AUC HT.EGTA: reference of the scale not given here
BJeLR = experiment: as above; type: cell-based, human; parameters: AUC, modulator BJ.Gd3+ / AUC, modulator BJ.LNAME / AUC, modulator BJ.Lmin / AUC, modulator BJ.3MA / AUC, modulator BJ.ALLN / AUC, modulator BJ.Boc D / AUC, modulator BJ.CHX / AUC, modulator BJ.Co2+ / AUC, modulator BJ.Nec-1 / AUC, modulator BJ.Pepstatin / AUC, modulator BJ.TLCK / AUC, modulator BJ.atoc / AUC, modulator BJ.trolox / AUC, modulator BJ.zVAD: unit not given beside the values; conditions: BJeLR cells, modulatory profile value (AUC); for AUC, modulator BJ.3MA: lethal compound cotreated with modulator 3MA; for AUC, modulator BJ.ALLN: lethal compound cotreated with modulator ALLN; for AUC, modulator BJ.Boc D: lethal compound cotreated with modulator Boc D; for AUC, modulator BJ.CHX: lethal compound cotreated with modulator CHX; for AUC, modulator BJ.Co2+: lethal compound cotreated with modulator Co2+; for AUC, modulator BJ.DPQ: lethal compound cotreated with modulator DPQ; for AUC, modulator BJ.Gd3+: lethal compound cotreated with modulator Gd3+; for AUC, modulator BJ.LNAME: lethal compound cotreated with modulator LNAME; for AUC, modulator BJ.Lmin/NAD+: lethal compound cotreated with modulator Lmin/NAD+; for AUC, modulator BJ.Lmin: lethal compound cotreated with modulator Lmin; for AUC, modulator BJ.NAD+: lethal compound cotreated with modulator NAD+; for AUC, modulator BJ.NMMA: lethal compound cotreated with modulator NMMA; for AUC, modulator BJ.Nec-1: lethal compound cotreated with modulator Nec-1; for AUC, modulator BJ.Pepstatin: lethal compound cotreated with modulator Pepstatin; for AUC, modulator BJ.TLCK: lethal compound cotreated with modulator TLCK; for AUC, modulator BJ.atoc: lethal compound cotreated with modulator atoc; for AUC, modulator BJ.trolox: lethal compound cotreated with modulator trolox; for AUC, modulator BJ.zVAD: lethal compound cotreated with modulator zVAD; as to AUC, modulator BJ.3MA: reference of the scale not given here; as to AUC, modulator BJ.ALLN: reference of the scale not given here; as to AUC, modulator BJ.Boc D: reference of the scale not given here; as to AUC, modulator BJ.CHX: reference of the scale not given here; as to AUC, modulator BJ.Co2+: reference of the scale not given here; as to AUC, modulator BJ.DPQ: reference of the scale not given here; as to AUC, modulator BJ.Gd3+: reference of the scale not given here; as to AUC, modulator BJ.LNAME: reference of the scale not given here; as to AUC, modulator BJ.NAD+: reference of the scale not given here; as to AUC, modulator BJ.NMMA: reference of the scale not given here; as to AUC, modulator BJ.Nec-1: reference of the scale not given here; as to AUC, modulator BJ.Pepstatin: reference of the scale not given here; as to AUC, modulator BJ.TLCK: reference of the scale not given here

O=C1c2ccccc2-c2onc3ccc(Oc4ccccc4)c1c23 [CIL6]
AUC HT.ATA (HT-1080): 0.007654 | AUC HT.ActD (HT-1080): −0.008928 | AUC HT.BHA (HT-1080): −0.007636 | AUC HT.BHT (HT-1080): −0.06114 | AUC HT.BocD (HT-1080): 0.076 | AUC HT.CHX (HT-1080): 0.161 | AUC HT.Co2+ (HT-1080): 0.04208 | AUC HT.CspA (HT-1080): −0.01275 | AUC HT.DPQ (HT-1080): 0.04323 | AUC HT.EGTA (HT-1080): 0.01026 | AUC HT.Gd3+ (HT-1080): −0.02897 | AUC HT.LNAME (HT-1080): 0.0157 | AUC HT.Lmim (HT-1080): −0.01064 | AUC HT.NAD+ (HT-1080): 0.04899 | AUC HT.NMMA (HT-1080): −0.02292 | AUC HT.Nec-1 (HT-1080): 0.01299 | AUC HT.Pepstatin (HT-1080): 0.0188 | AUC HT.SP600125 (HT-1080): −0.01195 | AUC HT.TLCK (HT-1080): −0.00546 | AUC HT.U0126 (HT-1080): 0.04846 | HT.atoc (AUC) (HT-1080): 0.1204 | HT.bCarotene (AUC) (HT-1080): −0.0173 | HT.deferox (AUC) (HT-1080): 0.02051 | HT.digoxin (AUC) (HT-1080): 0.009607 | HT.trolox (AUC) (HT-1080): −0.01697 | HT.zVAD (AUC) (HT-1080): −0.01676 | AUC, modulator HT.3MA (HT-1080): 0.06096 | AUC, modulator HT.ALLN (HT-1080): 0.04648 | AUC, modulator BJ.3MA (BJeLR): 0.1191 | AUC, modulator BJ.ALLN (BJeLR): −0.0496 | AUC, modulator BJ.Boc D (BJeLR): −0.05247 | AUC, modulator BJ.CHX (BJeLR): 0.1353 | AUC, modulator BJ.Co2+ (BJeLR): 0.06961 | AUC, modulator BJ.DPQ (BJeLR): 0.01365 | AUC, modulator BJ.Gd3+ (BJeLR): 0.006848 | AUC, modulator BJ.LNAME (BJeLR): −0.02637 | AUC, modulator BJ.Lmin/NAD+ (BJeLR): −0.0638 | AUC, modulator BJ.Lmin (BJeLR): −0.03874 | AUC, modulator BJ.NAD+ (BJeLR): 0.02657 | AUC, modulator BJ.NMMA (BJeLR): 0.006287 | AUC, modulator BJ.Nec-1 (BJeLR): 0.01237 | AUC, modulator BJ.Pepstatin (BJeLR): 0.03711 | AUC, modulator BJ.TLCK (BJeLR): −0.01536 | AUC, modulator BJ.atoc (BJeLR): 0.01482 | AUC, modulator BJ.trolox (BJeLR): −0.006777 | AUC, modulator BJ.zVAD (BJeLR): −0.003192

Cc1cc(C)c2c(=O)n(CC(=O)NCCCN3CCN(c4ccccc4F)CC3)sc2n1 [CIL50]
AUC HT.ATA (HT-1080): 0.06518 | AUC HT.ActD (HT-1080): −0.00775 | AUC HT.BHA (HT-1080): 0.006655 | AUC HT.BHT (HT-1080): −0.06029 | AUC HT.BocD (HT-1080): 0.004017 | AUC HT.CHX (HT-1080): −0.04825 | AUC HT.Co2+ (HT-1080): −0.08688 | AUC HT.CspA (HT-1080): −0.01271 | AUC HT.DPQ (HT-1080): −0.01588 | AUC HT.EGTA (HT-1080): −0.02244 | AUC HT.Gd3+ (HT-1080): −0.03877 | AUC HT.LNAME (HT-1080): 0.01806 | AUC HT.Lmim (HT-1080): −0.00536 | AUC HT.NAD+ (HT-1080): 0.009799 | AUC HT.NMMA (HT-1080): 0.004196 | HT.atoc (AUC) (HT-1080): 0.06547 | HT.bCarotene (AUC) (HT-1080): 0.01961 | HT.deferox (AUC) (HT-1080): −0.04084 | HT.digoxin (AUC) (HT-1080): 0.02124 | HT.trolox (AUC) (HT-1080): −0.01565 | HT.zVAD (AUC) (HT-1080): 0.02907 | AUC, modulator BJ.3MA (BJeLR): −0.001613 | AUC, modulator BJ.ALLN (BJeLR): −0.008924 | AUC, modulator BJ.Boc D (BJeLR): 0.03113 | AUC, modulator BJ.CHX (BJeLR): 0.1415 | AUC, modulator BJ.Co2+ (BJeLR): −0.0178 | AUC, modulator BJ.DPQ (BJeLR): −0.03869 | AUC, modulator BJ.Gd3+ (BJeLR): −0.02113 | AUC, modulator BJ.LNAME (BJeLR): 0.03227 | AUC, modulator BJ.Lmin/NAD+ (BJeLR): 0.01676 | AUC, modulator BJ.Lmin (BJeLR): 0.03123 | AUC, modulator BJ.NAD+ (BJeLR): −0.08482 | AUC, modulator BJ.NMMA (BJeLR): −0.004554 | AUC, modulator BJ.Nec-1 (BJeLR): −0.05683 | AUC, modulator BJ.Pepstatin (BJeLR): 0.003838 | AUC, modulator BJ.TLCK (BJeLR): −0.05225

CN(C)CC(O)Cn1c2ccc(Cl)cc2c2cc(Cl)ccc21 (centres unmarked) [CIL5]
AUC HT.ATA (HT-1080): 0.0005893 | AUC HT.ActD (HT-1080): −0.00753 | AUC HT.BHA (HT-1080): −0.08502 | AUC HT.BHT (HT-1080): −0.09917 | AUC HT.BocD (HT-1080): 0.01524 | AUC HT.CHX (HT-1080): 0.09726 | AUC HT.Co2+ (HT-1080): 0.08698 | AUC HT.CspA (HT-1080): −0.02159 | AUC HT.DPQ (HT-1080): 0.009641 | AUC HT.EGTA (HT-1080): −0.009215 | AUC HT.Gd3+ (HT-1080): −0.0257 | AUC HT.LNAME (HT-1080): 0.02263 | AUC HT.Lmim (HT-1080): 0.003574 | AUC HT.NAD+ (HT-1080): 0.03421 | AUC HT.NMMA (HT-1080): −0.003405 | AUC HT.Nec-1 (HT-1080): 0.003351 | AUC HT.Pepstatin (HT-1080): 0.01965 | AUC HT.SP600125 (HT-1080): −0.02149 | AUC HT.TLCK (HT-1080): −0.004057 | AUC HT.U0126 (HT-1080): −0.02944 | HT.atoc (AUC) (HT-1080): 0.03603 | HT.bCarotene (AUC) (HT-1080): −0.01403 | HT.deferox (AUC) (HT-1080): −0.01025 | HT.digoxin (AUC) (HT-1080): 0.005534 | HT.trolox (AUC) (HT-1080): 0.01247 | HT.zVAD (AUC) (HT-1080): −0.01378 | AUC, modulator HT.3MA (HT-1080): 0.0132 | AUC, modulator HT.ALLN (HT-1080): 0.07446 | AUC, modulator BJ.3MA (BJeLR): 0.08524 | AUC, modulator BJ.ALLN (BJeLR): −0.1163 | AUC, modulator BJ.Boc D (BJeLR): −0.07609 | AUC, modulator BJ.CHX (BJeLR): −0.0324 | AUC, modulator BJ.Co2+ (BJeLR): 0.04705 | AUC, modulator BJ.DPQ (BJeLR): 0.002876 | AUC, modulator BJ.Gd3+ (BJeLR): 0.01146 | AUC, modulator BJ.LNAME (BJeLR): −0.009787 | AUC, modulator BJ.Lmin/NAD+ (BJeLR): −0.01738 | AUC, modulator BJ.Lmin (BJeLR): −0.03698 | AUC, modulator BJ.NAD+ (BJeLR): 2.99E−05 | AUC, modulator BJ.NMMA (BJeLR): −0.0271 | AUC, modulator BJ.Nec-1 (BJeLR): 0.03195 | AUC, modulator BJ.Pepstatin (BJeLR): 0.06042 | AUC, modulator BJ.TLCK (BJeLR): −0.02603 | AUC, modulator BJ.atoc (BJeLR): −0.00271 | AUC, modulator BJ.trolox (BJeLR): 0.0183 | AUC, modulator BJ.zVAD (BJeLR): −0.02054
